Results taken from US7834007B2, “CGRP antagonists” (Bristol-Myers Squibb Company, priority 2005, dated 2010).

Each compound was assayed against T1, CGRP receptor (Homo sapiens, UniProt O60894+Q16602) (assay: CGRP radioligand binding assay ([125I]-CGRP displacement, SK-N-MC cell homogenate)). Conditions: displacement of 50% of [125I]-CGRP binding, room temperature 2 h.
T1 construct: endogenous in cells; host or cells: SK-N-MC cells (membrane homogenate)
Description: CGRP radioligand binding assay. Tissue Culture. SK-N-MC cells were grown at 37° C. in 5% CO2 as a monolayer in medium consisting of MEM with Earle's salts and L-glutamine (Gibco) supplemented with 10% fetal bovine serum (Gibco).
Cell Pellets. The cells were rinsed twice with phosphate-buffered saline (155 mM NaCl, 3.3 mM Na2HPO4, 1.1 mM KH2PO4, pH 7.4), and incubated for 5-10 min. at 4° C. in hypotonic lysis buffer consisting of 10 mM Tris (pH 7.4) and 5 mM EDTA. The cells were transferred from plates to polypropylene tubes (16×100 mm) and homogenized using a polytron. Homogenates were centrifuged at 32,000×g for 30 min. The pellets were resuspended in cold hypotonic lysis buffer with 0.1% mammalian protease inhibitor cocktail (Sigma) and assayed for protein concentration. The SK-N-MC homogenate was then aliquoted and stored at −80° C. until needed.
Binding Assay. The compounds of invention were solubilized and carried through serial dilutions using 100% DMSO. Aliquots from the compound serial dilutions were further diluted 25 fold into assay buffer (50 mM Tris-Cl pH 7.5, 5 mM MgCl2, 0.005% Triton X-100) and transferred (volume 50 μl) into 96 well assay plates. [^125I]-CGRP (Amersham Biosciences) was diluted to 60 pM in assay buffer and a volume of 50 μl was added to each well. SK-N-MC pellets were thawed, diluted in assay buffer with fresh 0.1% mammalian protease inhibitor cocktail (Sigma), and homogenized again. SK-N-MC homogenate (5 μg/well) was added in a volume of 100 μl. The assay plates were then incubated at room temperature for 2 h. Assays were stopped by addition of excess cold wash buffer (20 mM Tris-Cl pH 7.5, 0.1% BSA) immediately followed by filtration over glass fiber filters (Whatman GF/B) previously soaked in 0.5% PEI. Non-specific binding was defined with 1 μM beta-CGRP. Protein bound radioctivity was determined using a gamma or scintillation counter. The IC50 was defined as the concentration of a compound of invention required to displace 50% of radioligand binding. Results are tabulated in Table 1 as follows: 0.01 nM≦A≦10 nM; 10 nM<B≦100 nM; 100 nM<C≦1000 nM; D>1000 nM.

T1 sequence (Q16602 23-461): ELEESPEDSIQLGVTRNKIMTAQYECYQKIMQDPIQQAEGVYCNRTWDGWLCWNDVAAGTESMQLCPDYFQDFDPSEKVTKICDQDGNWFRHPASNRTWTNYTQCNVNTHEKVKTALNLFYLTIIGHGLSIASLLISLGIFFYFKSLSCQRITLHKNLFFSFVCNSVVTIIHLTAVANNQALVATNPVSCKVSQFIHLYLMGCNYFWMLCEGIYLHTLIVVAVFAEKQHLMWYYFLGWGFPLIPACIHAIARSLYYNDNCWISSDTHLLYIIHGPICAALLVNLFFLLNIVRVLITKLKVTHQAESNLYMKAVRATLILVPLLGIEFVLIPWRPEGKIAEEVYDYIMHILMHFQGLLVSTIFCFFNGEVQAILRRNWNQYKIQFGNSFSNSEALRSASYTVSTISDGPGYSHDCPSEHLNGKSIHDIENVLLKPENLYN
T1 sequence (O60894 27-148): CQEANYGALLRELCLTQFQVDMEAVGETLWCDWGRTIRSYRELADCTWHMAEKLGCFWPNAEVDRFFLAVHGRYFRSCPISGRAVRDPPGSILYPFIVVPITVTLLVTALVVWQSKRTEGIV

IC50, 0.01 to 10 nM:
Cc1cc(C[C@@H](NC(=O)N2CCC(c3cc4ccccc4[nH]c3=O)CC2)C(=O)N[C@@H](CCCCN)C(=O)N2CCC(N3CCCCC3)CC2)cc2cn[nH]c12 [Example 5, N-((R)-1-((S)-6-amino-1-oxo-1-(4-(piperidin-1-yl)piperidin-1-yl)hexan-2-ylamino)-3-(7-methyl-1H-indazol-5-yl)-1-oxopropan-2-yl)-4-(2-oxo-1,2-dihydroquinolin-3-yl)piperidine-1-carboxamide]
Cc1cc(C[C@@H](NC(=O)N2CCC(c3cc4cccnc4[nH]c3=O)CC2)C(=O)N[C@@H](CCCCN)C(=O)N2CCN(c3ccncc3)CC2)cc2cn[nH]c12 [Example 7, N-((R)-1-((S)-6-amino-1-oxo-1-(4-(pyridin-4-yl)piperazin-1-yl)hexan-2-ylamino)-3-(7-methyl-1H-indazol-5-yl)-1-oxopropan-2-yl)-4-(2-oxo-1,2-dihydro-1,8-naphthyridin-3-yl)piperidine-1-carboxamide]
Cc1cc(C[C@@H](NC(=O)N2CCC(c3cc4ccccc4[nH]c3=O)CC2)C(=O)N[C@@H](CCCCNC(=O)OC(C)(C)C)C(=O)N2CCN(c3ccncc3)CC2)cc2oc(=O)[nH]c12 [Example 8, tert-Butyl (S)-5-((R)-3-(4-methyl-2-oxo-2,3-dihydrobenzo[d]oxazol-6-yl)-2-(4-(2-oxo-1,2-dihydroquinolin-3-yl)piperidine-1-carboxamido)propanamido)-6-oxo-6-(4-(pyridin-4-yl)piperazin-1-yl)hexylcarbamate]
Cc1cc(C[C@@H](NC(=O)N2CCC(N3Cc4ccccc4NC3=O)CC2)C(=O)N[C@@H](CCCCNC(=O)OC(C)(C)C)C(=O)N2CCN(c3ccncc3)CC2)cc2cn[nH]c12 [Example 3, tert-Butyl (S)-5-((R)-3-(7-methyl-1H-indazol-5-yl)-2-(4-(2-oxo-1,2-dihydroquinazolin-3(4H)-yl)piperidine-1-carboxamido)propanamido)-6-oxo-6-(4-(pyridin-4-yl)piperazin-1-yl)hexylcarbamate]
Cc1cc(C[C@@H](NC(=O)N2CCC(N3Cc4cccc(F)c4NC3=O)CC2)C(=O)N[C@@H](CCCCNC(=O)OC(C)(C)C)C(=O)N2CCN(c3ccncc3)CC2)cc2nn[nH]c12 [Example 9, tert-Butyl (S)-5-((R)-2-(4-(8-fluoro-2-oxo-1,2-dihydroquinazolin-3(4H)-yl)piperidine-1-carboxamido)-3-(7-methyl-1H-benzo[d][, 2,3]triazol-5-yl)propanamido)-6-oxo-6-(4-(pyridin-4-yl)piperazin-1-yl)hexylcarbamate]
Cc1cc(C[C@@H](NC(=O)N2CCC(c3cc4cccc(F)c4[nH]c3=O)CC2)C(=O)N[C@@H](CCCCN)C(=O)N2CCN(c3ccncc3)CC2)cc2cn[nH]c12 [Example 6, N-((R)-1-((S)-6-amino-1-oxo-1-(4-(pyridin-4-yl)piperazin-1-yl)hexan-2-ylamino)-3-(7-methyl-1H-indazol-5-yl)-1-oxopropan-2-yl)-4-(8-fluoro-2-oxo-1,2-dihydroquinolin-3-yl)piperidine-1-carboxamide]
Cc1cc(C[C@@H](NC(=O)N2CCC(c3cc4ccccc4[nH]c3=O)CC2)C(=O)N[C@@H](CCCCN)C(=O)N2CCN(c3ccncc3)CC2)cc2cn[nH]c12 [Example 2, N-((R)-1-((S)-6-amino-1-oxo-1-(4-(pyridin-4-yl)piperazin-1-yl)hexan-2-ylamino)-3-(7-methyl-1H-indazol-5-yl)-1-oxopropan-2-yl)-4-(2-oxo-1,2-dihydroquinolin-3-yl)piperidine-1-carboxamide]
Cc1cc(C[C@@H](NC(=O)N2CCC(N3Cc4ccccc4NC3=O)CC2)C(=O)N[C@@H](CCCCN)C(=O)N2CCN(c3ccncc3)CC2)cc2cn[nH]c12 [Example 4, N-((R)-1-((S)-6-Amino-1-oxo-1-(4-(pyridin-4-yl)piperazin-1-yl)hexan-2-ylamino)-3-(7-methyl-1H-indazol-5-yl)-1-oxopropan-2-yl)-4-(2-oxo-1,2-dihydroquinazolin-3(4H)-yl)piperidine-1-carboxamide]
